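All cell lines were grown in 96-well plates and treated with compound for 48 hours. GI50 marks 50% less growth.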 Calls of active or inactive are those of the source. Cut-off read from the data, not from the text of the source: active = GI50 up to about 1.1 µM and inactive = higher.

Among the test systems are 786-0; CAKI-1; EKVX; HCC 2998; HCT-15; KM12; NCI-H522; NCI/ADR-RES; OVCAR-4; OVCAR-5; RXF 393; SF-295; SF-539; SK-MEL-2; SK-OV-3; SN12C; SR; TK-10; U-251; UACC-257.
Holding throughout (assay): DTP human tumour cell line panel, 48 h

On to `CC(=O)Nc1ccc2c3c(cc(O)c2c1)N(C(=O)CCCCC(=O)N1CC(CCl)c2c1cc(O)c1cc(NC(C)=O)ccc21)CC3CCl` (stereo not drawn), for which the GI50 (in general, the concentration that inhibits growth by half) in the assay on 786-0 is 0.0528 µM (active); in the assay on CAKI-1 it was 0.745 µM (active); in the assay with EKVX, 2.38 µM (inactive); in the assay on HCC 2998, 0.21 µM (active); with HCT-15, 12.9 µM; in the assay on KM12 it was 0.505 µM (active). Besides, the GI50 is 0.0575 µM (active) in the assay with NCI-H522; 21.3 µM (inactive) with NCI/ADR-RES; 1.63 µM (inactive) in the assay on OVCAR-4; 1.37 µM (inactive) in the assay with OVCAR-5; 0.153 µM (active) in the assay on RXF 393; 0.151 µM (active) in the assay with SF-295. Moreover, the GI50 in the assay on SF-539 was 0.0527 µM (active); in the assay with SK-MEL-2 it was 0.144 µM (active); in the assay on SK-OV-3 it was 0.34 µM (active); in the assay on SN12C it was 0.154 µM (active); with SR, < 0.01 µM (active); in the assay with TK-10, 2.19 µM (inactive). Moreover, the GI50 is 0.0285 µM (active) in the assay with U-251 and 0.181 µM (active) in the assay with UACC-257.

Turning to `C/C(=N\NC(=[Se])N1CCN(c2ccccn2)CC1)c1ccccn1`, the GI50 in the assay with 786-0 is 0.243 µM (active); in the assay on CAKI-1, 2.65 µM (inactive); in the assay on HCC 2998, 11.1 µM (inactive); in the assay with HCT-15 it was 0.01 µM; in the assay on KM12, 0.598 µM (active); in the assay with NCI-H522 it was 0.125 µM (active). For the same compound, the GI50 in the assay on NCI/ADR-RES was 0.0023 µM (active); in the assay with OVCAR-4, 0.0933 µM (active); in the assay on OVCAR-5, 5.97 µM (inactive); in the assay on RXF 393, 0.0352 µM (active); in the assay on SF-295, 2.42 µM (inactive); in the assay with SF-539 it was 2.51 µM (inactive). For the same compound, the GI50 is 0.238 µM (active) with SK-MEL-2; 2.75 µM (inactive) in the assay with SK-OV-3; 0.222 µM (active) in the assay with SN12C; 0.00622 µM (active) in the assay on SR; 7.38 µM (inactive) in the assay on TK-10; 0.00925 µM (active) with U-251. Moreover, in the assay on UACC-257, the GI50 was 0.01 µM (active).

As to `Cc1ccc([N+](=O)[O-])cc1S(=O)(=O)Nc1ccc(C2=NOC(c3ccccc3O)C2)cc1` (stereo not drawn), the GI50 is 8.65 µM (inactive) with 786-0; 9.42 µM (inactive) in the assay on CAKI-1; 17.1 µM (inactive) in the assay with EKVX; 7.01 µM (inactive) with HCC 2998; 3.44 µM in the assay on HCT-15; 3.16 µM (inactive) in the assay on KM12. Moreover, the GI50 in the assay with NCI-H522 is 1.29 µM (inactive); with NCI/ADR-RES, 2.54 µM (inactive); with OVCAR-4 it was 3 µM (inactive); in the assay with OVCAR-5, 33.4 µM (inactive); in the assay on RXF 393, 2.26 µM (inactive); in the assay on SF-295, 3.85 µM (inactive). Further, the GI50 in the assay on SF-539 was 4.58 µM (inactive); with SK-MEL-2 it was 2.74 µM (inactive); in the assay on SK-OV-3 it was 15.3 µM (inactive); in the assay with SN12C it was 12.3 µM (inactive); in the assay with SR it was 0.577 µM (active); in the assay on TK-10, 18.3 µM (inactive). Moreover, the GI50 in the assay with UACC-257 is 5.97 µM (inactive).

As to `CCOC(=O)c1nc2ccc(C(F)(F)F)cc2nc1NCc1ccc(F)cc1`, the GI50 in the assay with 786-0 was 30.1 µM (inactive); in the assay with CAKI-1, 41.5 µM (inactive); with EKVX, 37.8 µM (inactive); in the assay on HCC 2998, 24.8 µM (inactive); in the assay with HCT-15 it was 29.4 µM; with KM12, 58.7 µM (inactive). Further, the GI50 was 18.1 µM (inactive) with NCI-H522; 24 µM (inactive) in the assay on NCI/ADR-RES; 12 µM (inactive) in the assay on OVCAR-4; 64.3 µM (inactive) in the assay on OVCAR-5; 37.2 µM (inactive) in the assay on RXF 393; 75.5 µM (inactive) in the assay with SF-295. Besides, the GI50 with SF-539 was 80 µM (inactive); with SK-MEL-2, 59.4 µM (inactive); in the assay with SK-OV-3, 43 µM (inactive); in the assay with SN12C, 28.8 µM (inactive); in the assay with SR it was 37.8 µM (inactive); in the assay on TK-10, 27.9 µM (inactive). Besides, the GI50 is 35.7 µM (inactive) in the assay with U-251 and 27.5 µM (inactive) in the assay on UACC-257.

Consider `Cc1n(-c2ccccc2)c2c([n+]1Cc1ccc([N+](=O)[O-])cc1)C(=O)c1ccccc1C2=O`, for which the GI50 in the assay with 786-0 was 4.31 µM (inactive); with CAKI-1 it was 15.7 µM (inactive); in the assay with EKVX it was 2.49 µM (inactive); in the assay with HCC 2998, 2.26 µM (inactive); in the assay on HCT-15 it was 9.12 µM; in the assay with KM12 it was 2.29 µM (inactive). Moreover, the GI50 in the assay on NCI-H522 is 0.579 µM (active); in the assay with NCI/ADR-RES it was 2.05 µM (inactive); in the assay on OVCAR-4 it was 1.66 µM (inactive); in the assay with OVCAR-5, 2.02 µM (inactive); with RXF 393, 7.66 µM (inactive); in the assay with SF-295, 5.45 µM (inactive). The GI50 with SF-539 was 1.97 µM (inactive); in the assay with SK-MEL-2 it was 1.48 µM (inactive); with SK-OV-3, 4.3 µM (inactive); with SN12C, 1.64 µM (inactive); in the assay with SR, 1.72 µM (inactive); with TK-10, 7.66 µM (inactive). The GI50 is 1.75 µM (inactive) with U-251 and 1.69 µM (inactive) in the assay with UACC-257.

Turning to `COC(=O)C(CCSc1ccccc1)C(=O)OC`, the GI50 in the assay with 786-0 is > 100 µM (inactive); with CAKI-1, > 100 µM (inactive); in the assay on EKVX, > 100 µM (inactive); in the assay with HCC 2998, > 100 µM (inactive); with HCT-15 it was more than 100 µM; in the assay with KM12, > 100 µM (inactive). For the same compound, the GI50 in the assay with NCI-H522 was 93.8 µM (inactive); in the assay with NCI/ADR-RES, > 100 µM (inactive); with OVCAR-4 it was > 100 µM (inactive); in the assay on OVCAR-5, > 100 µM (inactive); with RXF 393 it was > 100 µM (inactive); in the assay with SF-295, > 100 µM (inactive). In addition, the GI50 in the assay on SF-539, with SK-MEL-2, in the assay on SK-OV-3, with SN12C, with SR and in the assay on U-251 was > 100 µM (inactive) each time. Moreover, the GI50 with UACC-257 was > 100 µM (inactive).

For the compound `Cc1n[nH]c(=O)n1/N=C/c1ccc(Cl)cc1`, the GI50 was > 100 µM (inactive) with 786-0; 52.2 µM (inactive) in the assay with CAKI-1; 13.3 µM (inactive) in the assay on EKVX; > 100 µM (inactive) with HCC 2998; more than 100 µM in the assay with HCT-15; > 100 µM (inactive) with KM12. The GI50 is 21.7 µM (inactive) with NCI-H522; 49.3 µM (inactive) with NCI/ADR-RES; 98.4 µM (inactive) in the assay on OVCAR-4; > 100 µM (inactive) in the assay with OVCAR-5; 22.3 µM (inactive) in the assay on RXF 393; 46 µM (inactive) with SF-295. The GI50 is 78.2 µM (inactive) with SF-539; 83.4 µM (inactive) in the assay on SK-OV-3; 70.6 µM (inactive) in the assay on SN12C; 34.4 µM (inactive) in the assay on SR; 81.8 µM (inactive) with UACC-257.

With `Cc1cc(N(CCOS(C)(=O)=O)CCOS(C)(=O)=O)ccc1/C=N/c1ccc(-c2csc(-c3ccccc3)n2)c(Cl)c1`, the GI50 in the assay with 786-0 is 2.05 µM (inactive); in the assay on CAKI-1, 0.179 µM (active); with EKVX, 4.47 µM (inactive); in the assay with HCC 2998 it was 2.93 µM (inactive); in the assay with HCT-15 it was 8.04 µM; in the assay on KM12, 11.2 µM (inactive). In addition, the GI50 was 1.63 µM (inactive) with NCI-H522; 13.3 µM (inactive) with NCI/ADR-RES; 16 µM (inactive) with OVCAR-4; 17.3 µM (inactive) in the assay on OVCAR-5; 2.12 µM (inactive) in the assay on RXF 393; 2.36 µM (inactive) with SF-295. The GI50 with SF-539 was 3.94 µM (inactive); in the assay on SK-MEL-2, 21 µM (inactive); with SK-OV-3, 3.37 µM (inactive); in the assay on SN12C, 8.81 µM (inactive); in the assay on SR it was 1.54 µM (inactive); in the assay on TK-10, 10.5 µM (inactive). Also, the GI50 with U-251 is 16.1 µM (inactive); with UACC-257, 20.4 µM (inactive).

Take `NNC(=O)C1(NC(=O)c2ccccc2)C(c2ccccc2)C(c2ccccc2)=NN1c1ccccc1` (stereo not drawn): the GI50 is 50.5 µM (inactive) in the assay on 786-0; 15.6 µM (inactive) with CAKI-1; 42.3 µM (inactive) in the assay on EKVX; 57.1 µM (inactive) with HCC 2998; 18.5 µM with HCT-15; 35.1 µM (inactive) in the assay with KM12. For the same compound, the GI50 was 55.3 µM (inactive) in the assay on NCI-H522; 32.1 µM (inactive) with NCI/ADR-RES; 12.8 µM (inactive) with OVCAR-4; 33 µM (inactive) with OVCAR-5; 14.5 µM (inactive) with RXF 393; 24.5 µM (inactive) in the assay on SF-295. Besides, the GI50 in the assay with SF-539 was 44.2 µM (inactive); in the assay on SK-MEL-2, 41.5 µM (inactive); in the assay on SK-OV-3, 29.9 µM (inactive); with SN12C, 63.2 µM (inactive); with SR, 18.2 µM (inactive); with TK-10, 58.2 µM (inactive). Further, the GI50 is 62.1 µM (inactive) with U-251 and 43.3 µM (inactive) with UACC-257.

For `C/C(=C(/C)c1ccc(O)cc1)c1ccc(O)cc1` [DIMETHYLSTILBESTROL], the GI50 in the assay with 786-0 was 61.9 µM (inactive); in the assay on CAKI-1, 37 µM (inactive); with EKVX, 8.95 µM (inactive); in the assay with HCC 2998, > 100 µM (inactive); in the assay on HCT-15 it was 61.1 µM; in the assay on KM12 it was 62.7 µM (inactive). Further, the GI50 with NCI-H522 was > 100 µM (inactive); in the assay on NCI/ADR-RES, 45.5 µM (inactive); in the assay on OVCAR-4, > 10 µM (inactive); in the assay with OVCAR-5, > 100 µM (inactive); with RXF 393 it was 56.8 µM (inactive); with SF-539, 32.3 µM (inactive). Besides, the GI50 in the assay with SK-MEL-2 was 10 µM (inactive); in the assay on SK-OV-3, > 100 µM (inactive); in the assay with SN12C, 58.6 µM (inactive); with SR, 40.1 µM (inactive); in the assay on TK-10, 89.5 µM (inactive); in the assay on U-251, 67.3 µM (inactive). Also, the GI50 with UACC-257 is 43.4 µM (inactive).

The record behind these values is ChEMBL document CHEMBL1201862, “PubChem BioAssay data set” (2004).
